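Protocol summary: plate cells (96-well), add compound at 5 concentrations, incubate 48 h, interpolate endpoints linearly. TGI is the concentration that stops growth completely.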
Assays:
Assay in all cases: NCI tumour cell line growth inhibition, 48 h
786-0 renal = test system: 786-0 renal
A498 renal = test system: A498 renal
A549 NSCLC = test system: A549 NSCLC
ACHN renal = test system: ACHN renal
BT-549 breast = test system: BT-549 breast
CAKI-1 renal = test system: CAKI-1 renal
CCRF-CEM leukemia = test system: CCRF-CEM leukemia
COLO 205 colon = test system: COLO 205 colon
DU-145 prostate = test system: DU-145 prostate
EKVX NSCLC = test system: EKVX NSCLC
HCC-2998 colon = test system: HCC-2998 colon
HCT-116 colon = test system: HCT-116 colon
HCT-15 colon = test system: HCT-15 colon
HL-60(TB) leukemia = test system: HL-60(TB) leukemia
HOP-62 NSCLC = test system: HOP-62 NSCLC
HOP-92 NSCLC = test system: HOP-92 NSCLC
HS 578T breast = test system: HS 578T breast
HT29 colon = test system: HT29 colon
IGROV1 ovarian = test system: IGROV1 ovarian
K-562 leukemia = test system: K-562 leukemia
KM12 colon = test system: KM12 colon
LOX IMVI melanoma = test system: LOX IMVI melanoma
M14 melanoma = test system: M14 melanoma
MALME-3M melanoma = test system: MALME-3M melanoma
MCF7 breast = test system: MCF7 breast
MDA-MB-435 = test system: MDA-MB-435
MDA-N = test system: MDA-N
MOLT-4 leukemia = test system: MOLT-4 leukemia
NCI-H226 lung = test system: NCI-H226 lung
NCI-H23 lung = test system: NCI-H23 lung
NCI-H460 lung = test system: NCI-H460 lung
NCI-H522 lung = test system: NCI-H522 lung
NCI/ADR-RES ovarian = test system: NCI/ADR-RES ovarian
OVCAR-3 ovarian = test system: OVCAR-3 ovarian
OVCAR-4 ovarian = test system: OVCAR-4 ovarian
OVCAR-5 ovarian = test system: OVCAR-5 ovarian
OVCAR-8 ovarian = test system: OVCAR-8 ovarian
PC-3 prostate = test system: PC-3 prostate
RPMI-8226 leukemia = test system: RPMI-8226 leukemia
RXF 393 renal = test system: RXF 393 renal
SF-268 CNS = test system: SF-268 CNS
SF-295 CNS = test system: SF-295 CNS
SK-MEL-28 melanoma = test system: SK-MEL-28 melanoma
SK-MEL-5 melanoma = test system: SK-MEL-5 melanoma
SN12C renal = test system: SN12C renal
SNB-19 CNS = test system: SNB-19 CNS
SR leukemia = test system: SR leukemia
SW-620 colon = test system: SW-620 colon
U251 CNS = test system: U251 CNS
UACC-257 melanoma = test system: UACC-257 melanoma
UACC-62 melanoma = test system: UACC-62 melanoma
UO-31 renal = test system: UO-31 renal
MDA-MB-231 breast = test system: MDA-MB-231 breast
SF-539 CNS = test system: SF-539 CNS
SK-MEL-2 melanoma = test system: SK-MEL-2 melanoma
SK-OV-3 ovarian = test system: SK-OV-3 ovarian
SNB-75 CNS = test system: SNB-75 CNS
T-47D breast = test system: T-47D breast
TK-10 renal = test system: TK-10 renal

COc1ccc(-c2c(C(=O)Nc3ccccc3)c(-c3ccccc3)n(C3OC(CO)C(O)C(O)C3O)c(=S)c2C#N)cc1 (centres undefined)
TGI (786-0 renal): > 100 µM
TGI (A498 renal): > 100 µM
TGI (A549 NSCLC): > 100 µM
TGI (ACHN renal): > 100 µM
TGI (BT-549 breast): > 100 µM
TGI (CAKI-1 renal): > 100 µM
TGI (CCRF-CEM leukemia): > 100 µM
TGI (COLO 205 colon): > 100 µM
TGI (DU-145 prostate): > 100 µM
TGI (EKVX NSCLC): > 100 µM
TGI (HCC-2998 colon): > 100 µM
TGI (HCT-116 colon): > 100 µM
TGI (HCT-15 colon): > 100 µM
TGI (HL-60(TB) leukemia): > 100 µM
TGI (HOP-62 NSCLC): > 100 µM
TGI (HOP-92 NSCLC): > 100 µM
TGI (HS 578T breast): > 100 µM
TGI (HT29 colon): > 100 µM
TGI (IGROV1 ovarian): > 100 µM
TGI (K-562 leukemia): > 100 µM
TGI (KM12 colon): > 100 µM
TGI (LOX IMVI melanoma): > 100 µM
TGI (M14 melanoma): > 100 µM
TGI (MALME-3M melanoma): > 100 µM
TGI (MCF7 breast): > 100 µM
TGI (MDA-MB-435): > 100 µM
TGI (MDA-N): > 100 µM
TGI (MOLT-4 leukemia): > 100 µM
TGI (NCI-H226 lung): > 100 µM
TGI (NCI-H23 lung): > 100 µM
TGI (NCI-H460 lung): > 100 µM
TGI (NCI-H522 lung): > 100 µM
TGI (NCI/ADR-RES ovarian): > 100 µM
TGI (OVCAR-3 ovarian): > 100 µM
TGI (OVCAR-4 ovarian): > 100 µM
TGI (OVCAR-5 ovarian): > 100 µM
TGI (OVCAR-8 ovarian): > 100 µM
TGI (PC-3 prostate): > 100 µM
TGI (RPMI-8226 leukemia): > 100 µM
TGI (RXF 393 renal): > 100 µM
TGI (SF-268 CNS): > 100 µM
TGI (SF-295 CNS): > 100 µM
TGI (SK-MEL-28 melanoma): > 100 µM
TGI (SK-MEL-5 melanoma): > 100 µM
TGI (SN12C renal): > 100 µM
TGI (SNB-19 CNS): > 100 µM
TGI (SR leukemia): > 100 µM
TGI (SW-620 colon): > 100 µM
TGI (U251 CNS): > 100 µM
TGI (UACC-257 melanoma): > 100 µM
TGI (UACC-62 melanoma): > 100 µM
TGI (UO-31 renal): > 100 µM

C=C1C(=O)OC2C3C(=C)[C@@H](OC(C)=O)CC3C(C)=CC(OC(=O)C(C)(O)C(C)OC(C)=O)[C@@H]12 (some centres undefined)
TGI (786-0 renal): 24.2 µM
TGI (A498 renal): 32.3 µM
TGI (A549 NSCLC): 77.8 µM
TGI (ACHN renal): 24.8 µM
TGI (BT-549 breast): 26.7 µM
TGI (CAKI-1 renal): 12.4 µM
TGI (CCRF-CEM leukemia): 7.51 µM
TGI (COLO 205 colon): 15.9 µM
TGI (DU-145 prostate): 30.3 µM
TGI (EKVX NSCLC): 30.2 µM
TGI (HCC-2998 colon): 29.7 µM
TGI (HCT-116 colon): 17.9 µM
TGI (HCT-15 colon): 22 µM
TGI (HL-60(TB) leukemia): 5.57 µM
TGI (HOP-62 NSCLC): 46.6 µM
TGI (HS 578T breast): 40.9 µM
TGI (HT29 colon): 19.4 µM
TGI (IGROV1 ovarian): 21.3 µM
TGI (K-562 leukemia): 14.8 µM
TGI (KM12 colon): 28.5 µM
TGI (LOX IMVI melanoma): 19.4 µM
TGI (M14 melanoma): 19.7 µM
TGI (MALME-3M melanoma): 20.2 µM
TGI (MCF7 breast): 22.9 µM
TGI (MDA-MB-231 breast): 34.1 µM
TGI (MDA-MB-435): 28.3 µM
TGI (MDA-N): 18.5 µM
TGI (MOLT-4 leukemia): > 100 µM
TGI (NCI-H226 lung): 48.4 µM
TGI (NCI-H23 lung): 27.3 µM
TGI (NCI-H460 lung): 44 µM
TGI (NCI-H522 lung): 3.21 µM
TGI (OVCAR-3 ovarian): 21.8 µM
TGI (OVCAR-4 ovarian): 23.3 µM
TGI (OVCAR-5 ovarian): 24.9 µM
TGI (OVCAR-8 ovarian): 37.9 µM
TGI (PC-3 prostate): 30.7 µM
TGI (RPMI-8226 leukemia): 65.7 µM
TGI (RXF 393 renal): 17.4 µM
TGI (SF-268 CNS): 37.9 µM
TGI (SF-295 CNS): > 100 µM
TGI (SF-539 CNS): 31.9 µM
TGI (SK-MEL-2 melanoma): 20.6 µM
TGI (SK-MEL-28 melanoma): 27.2 µM
TGI (SK-MEL-5 melanoma): 20.1 µM
TGI (SK-OV-3 ovarian): > 100 µM
TGI (SN12C renal): 27.8 µM
TGI (SNB-19 CNS): > 100 µM
TGI (SNB-75 CNS): 28.4 µM
TGI (SR leukemia): 68.9 µM
TGI (SW-620 colon): 10.7 µM
TGI (T-47D breast): 39 µM
TGI (TK-10 renal): 18.4 µM
TGI (U251 CNS): 30.5 µM
TGI (UACC-257 melanoma): 23.2 µM
TGI (UACC-62 melanoma): 25.8 µM
TGI (UO-31 renal): 24.9 µM

Source: PubChem BioAssay (NCI)
